Measured values from PubChem BioAssay (NCI).
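A five-concentration, 48-hour dose response in 96-well plates underlies each endpoint, interpolated linearly between surrounding concentrations. The concentration for 50% growth inhibition is given as GI50. TGI marks complete inhibition of growth.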

Columns and labels:
Assay in all cases: growth of human tumour cells (NCI), 48 h
CAKI-1 renal = tested on: CAKI-1 renal
HOP-92 NSCLC = tested on: HOP-92 NSCLC
IGROV1 ovarian = tested on: IGROV1 ovarian
MOLT-4 leukemia = tested on: MOLT-4 leukemia
NCI-H23 lung = tested on: NCI-H23 lung
OVCAR-3 ovarian = tested on: OVCAR-3 ovarian
RPMI-8226 leukemia = tested on: RPMI-8226 leukemia
SF-295 CNS = tested on: SF-295 CNS
UACC-62 melanoma = tested on: UACC-62 melanoma
HS 578T breast = tested on: HS 578T breast
PC-3 prostate = tested on: PC-3 prostate

SMILES	TGI (CAKI-1 renal) [µM]	TGI (HOP-92 NSCLC) [µM]	TGI (IGROV1 ovarian) [µM]	TGI (MOLT-4 leukemia) [µM]	TGI (NCI-H23 lung) [µM]	TGI (OVCAR-3 ovarian) [µM]	TGI (RPMI-8226 leukemia) [µM]	TGI (SF-295 CNS) [µM]	TGI (UACC-62 melanoma) [µM]	TGI (HS 578T breast) [µM]	TGI (PC-3 prostate) [µM]	GI50 (CAKI-1 renal) [µM]	GI50 (HOP-92 NSCLC) [µM]	GI50 (RPMI-8226 leukemia) [µM]	GI50 (SF-295 CNS) [µM]	GI50 (UACC-62 melanoma) [µM]	GI50 (HS 578T breast) [µM]	GI50 (MOLT-4 leukemia) [µM]	GI50 (NCI-H23 lung) [µM]	GI50 (OVCAR-3 ovarian) [µM]
Nc1nc(SCCNC(=O)CCc2ccc(O)cc2)nc2c1ncn2C1OC(CO)C(O)C1O (stereo not drawn)	> 203	> 203	> 203	> 203	> 203	> 203	> 203	> 203	> 203											
COc1ccc(N2C(=O)C3ON(C(C(N)=O)c4ccccc4)C(c4ccc(-c5ccccc5)cc4)C3C2=O)cc1 (stereo not drawn)	> 50		> 50	> 50	> 50	> 50	> 50	> 50	> 50	> 50	> 50									
COc1ccc2nc3ccc(OC)cc3c(S(=O)(=O)Cc3ccc([N+](=O)[O-])cc3)c2c1	> 100	> 100	> 100	> 100	> 100	> 100		> 100	> 100		> 100									
COc1cc(C2C(Cl)C(=O)N2NC(=O)c2ccccc2O)ccc1O (stereo not drawn)			> 100	> 100	> 100	> 100		> 100	> 100											
CN(NC(=O)CCCl)C1=NCCN1		> 100	> 100	> 100	> 100	> 100	> 100	> 100	> 100	> 100	> 100									
CN1C2CC(=O)CC1[C@H](O)[C@@H]2O				> 100	> 100	> 100	> 100	> 100			> 100									
COc1cc2c(c(C)c1O)[C@H]1COc3ccccc3[C@H]1O2	30	47.6	31.3	42.7	64.2	> 100	75.3	> 100												
CCCn1c(SCC)c2ccccc2c1-c1nc(F)nc(F)n1	> 100	> 100		> 100	> 100	> 100	> 100	> 100												
Cc1cccc2c1Oc1cc(Cl)ccc1C2NC(=O)CCN1CCN(CCO)CC1 (stereo not drawn)		22.8	> 100	38.9	51.5	34		33	28.7		28.1									
CCCCC(=O)Nc1ccc2cc(C(=O)OC)c(ON3C(=O)c4ccccc4C3=O)nc2n1	52.4	65.3	41	> 100	> 100	> 100	> 100	> 100			> 100									
CN1CN(c2ccccc2)C2(CCN(CCCSc3ccccc3NC(=O)/C=C/c3ccccc3)CC2)C1=O	> 26.5		6.61	7	25.1	13.3		7.95	6.37	15	23.5									
NCCCNc1nc2ccccc2c2c(=O)c3cc(C(F)(F)F)ccc3sc12	2.84	2.85					4.71	3.21	3.09			1.51	1.37	2.06	1.8	1.68				
CCCc1c(OC)c(=O)c2c(OC)cc(OC)c3c4c(OC)cc(OC)c5c(=O)c(OC)c(CCC)c(c1c23)c54	27.7	23.4	34.8	35	29.5	31.8		33.1	24.1											
CCOC(=O)c1csc(NC(=O)CCN2CCCCC2)n1	> 100	> 100	> 100	> 100	> 100	> 100	> 100	> 100	> 100		> 100									
CCc1n[nH]c(=O)n1/N=C/c1ccccc1Cl	> 100	> 100	> 100	> 100	> 100	> 100	> 100	> 100	> 100	10.2										
O=C1C(/C=C/c2ccc(Cl)cc2)=NNC2N1N=C1NC(=O)C3(NN12)c1ccccc1-c1ccccc13 (stereo not drawn)	> 100	> 100	> 100		> 100	> 100		> 100	> 100	> 100	> 100									
COC(=O)C(CCCC1(c2ccccc2)OCCO1)C(C)=O (stereo not drawn)			> 100	> 100	> 100	> 100		> 100												
COCC1CCCN1c1ccc(/C=C(/C#N)C(N)=S)cc1 (stereo not drawn)	> 100	89.2		> 100	> 100	> 100		> 100		> 100		> 100	8.32		> 100		> 100	> 100	> 100	> 100
CSc1nc(-c2cc3c(c(SC)n2)CCCCC3)cc2c1CCCCC2	> 100		85.9	> 100	> 100	> 100	> 100	> 100	> 100		> 100									
CC1OC(OC2C(O[C@H]3CC[C@@]4(C)[C@@H](CC[C@@H]5[C@@H]4CC[C@]4(C)[C@@H]6[C@H](C[C@@H]54)O[C@]4(CC[C@@H](C)CO4)[C@H]6C)C3)OC(CO)C(OC3OC(CO)C(O)C(OC4OCC(O)C(O)C4O)C3OC3OCC(O)C(O)C3O)C2O)C(O)C(O)C1O (stereo partly drawn)	2.53	3.11	2.73		2.93	3.13	11.4	1.93	1.77	2.74	1.8									
COC1=CC(=O)[C@H]2[C@H](C)C(c3ccccc3)[C@@]2(C)C1=O (stereo partly drawn)	> 100	> 100	> 100	> 100	> 100	> 100	> 100	> 100	> 100											
CC(C)C1(C)N=C(C(F)(F)F)c2cc(C(=O)C(F)(F)F)c3ccccc3c2N1 (stereo not drawn)	9.74		3.28	18.1	8.12	10.6	> 27	11.8	15.3	11	6.75									
CC(OC(=O)NCn1cc(-c2ccccc2)nn1)c1ccccc1 (stereo not drawn)	> 100	> 100	> 100	47.4	76.8		> 100	> 100			5.23									
